This is an account of results in patent US8957025B2, “Enkephalin analogues” (Pfizer Inc., priority 2011, dated 2015).

Data set [1] in a line: Human liver microsomal stability assay (HLM). Type of data set: in vitro ADME. To be noted: pooled liver microsomes, pH 7.4, 1 μM substrate, 37° C. An excerpt:
In vitro measurement of substrate metabolism can be determined using the microsomal cytochrome P450 mono-oxygenase system. This is a useful application in ranking clearance of a number of compounds by Phase I (including cytochrome P450) metabolism prior to in vivo assessment Measurement of intrinsic clearance using these methods also allows a comparison of species difference to be made to assist with translation of pharmacokinetic parameters from preclinical to clinical study.
Human and rat Liver microsomal assays were performed using pooled microsomes from the Pfizer Global Supply (BD Gentest™). Chemical reagents were purchased from commercial sources (Sigma-Aldrich) and drug entities synthesised at Pfizer Global Research. Incubation mixtures contained 50 mM phosphate buffer pH 7.4, 5 mM MgCl2, 5 mM isocitric acid and 1 unit/ml isocitric dehydrogenase. The microsomes were defrosted at room temperature and sufficient volumes added to give a final concentration of 0.5 nmol cytochrome P450/ml. Following the addition of 1 μM of substrate, the incubation was pre-incubated at 37° C. for 5 minutes. The reaction was then initiated by the addition of 1 mM NADP and incubation aliquots are taken over a 1 h time course. The reaction was subsequently stopped by addition of acetonitrile cooled on ice. […]
The intrinsic clearance in rat or human liver microsomes is calculated from: […]

A further data set concerns the target mu opioid receptor (UniProt P35372). Put plainly: Mu-opioid receptor agonist activity. It counts as cell-based. The procedure:
The ability of agonists to cause recruitment of beta-arrestin to the mu opioid receptor was measured using DiscoveRx PathHunter technology. A pro-linked tagged mu-opioid receptor and an EA-tagged beta-arrestin were expressed in U2OS cells and beta-arrestin recruitment measured following the methodology in McGuinness et al., 2009 (J Biomol Screen 14:49-58, Characterizing cannabinoid CB2 receptor ligands using DiscoverRx PathHunter beta-arrestin assay—McGuinness D., Malikzay A., Visconti R., Lin K., Bayne M., Monsma F., Lunn C A.)
The ability of mu opioid receptor agonists to inhibit forskolin stimulated cAMP production was measured in CHO cells recombinantly expressing the mu opioid receptor, using alphascreen technology as described in Nickolls et al., 2005, with the additional inclusion of 50 uM forskolin in the assay buffer. (J Pharmacol Exp Ther 313; 1281-88, Functional selectivity of melanocortin 4 receptor peptide and non-peptide agonists: Evidence for ligand specific conformational states. Nickolls S A., Fleck B., Hoare S., Maki R.)
Functional activity at the mu-opioid receptors was determined using the electrically stimulated guinea pig isolated myenteric plexus preparation following the methodology of Hughes, J.; Kosterlitz, H. W. and Leslie, F. M. Br. J. Pharmacol. 1975, 53, 371.

Data set [2] can be described thus: Lipophilicity (LogD), shake-flask octanol/buffer pH 7.4. It counts as physicochemical. The following applies: octanol / 0.1M phosphate buffer pH 7.4. The text has this:
LogD octanol (pH 7.4) is a measure of lipophilicity that accounts for both hydrophobic and hydrogen-bonding interactions of a given substrate. This assay is based on shake-flask methodology, performed in a fully automated manner in a 0.1M phosphate buffer pH7.4-octanol system.
After addition of the test substance in DMSO stock solution to the mixture and vigorous agitation followed by separation of the octanol and buffer layers by centrifugation, duplicate samples are removed from each layer and diluted prior to analysis by LC-MS/MS. Peak area is corrected for dilutions and the following equation used to calculate the logD (pH 7.4): […]
The duplicate logD values must be with 0.4 log units of each other and the positive controls must be within 0.2 log units of the known logD value.

The nature of another data set: Dofetilide binding. To be noted: probe dofetilide.
The test system of another data set is MDR. Put plainly: MDR Papp permeability. Type of data set: in vitro ADME. To be noted: not told.

In data set [1], `Cc1cc(O)cc(C)c1C[C@H](N)C(=O)N[C@H](C)C(=O)NC[C@@H](N)Cc1ccccc1` [Example 1, 2,6-Dimethyl-L-tyrosyl-N-[(2S)-2-amino-3-phenylpropyl]-D-alaninamide] displayed a microsomal CLint at 1 μM of 8.4 µL/min/mg. Also, the IC50 on mu opioid receptor was 9.8 nM; in “Dofetilide binding”, over 22000 nM. Further, the logD in data set [2] was found to be 0.05. Further, in the data set with MDR, the Papp was 0.7 ×10⁻⁶ cm/s.
For `Cc1cc(O)cc(C)c1C[C@H](N)C(=O)N[C@H](C)C(=O)NC[C@H](N)Cc1ccccc1` [Example 2, 2,6-Dimethyl-L-tyrosyl-N-[(2R)-2-amino-3-phenylpropyl]-D-alaninamide], in that order: under 8 µL/min/mg, 6 nM, over 22000 nM, -0.2 and 0.6 ×10⁻⁶ cm/s.
